Positions count from the first letter of the chain named. Where two headings read alike, the source gives them in different places.
Key:
[1] = molecular target: T1, RET(KD: 658-1114 G810R) (Homo sapiens, UniProt P07949, G810R); assay: HiBiT-Degradation, RET G810R degradation assay (Nano-Glo HiBiT Lytic), 293T.165 cells; type: cell-based; details: for Emax / DC50: 6.0 hours
T1 construct: 658-1114; expressed in transfected cells; host or cells: 293T.165 (293T cells, generated in-house)
T1 sequence (P07949 658-1114 G810R): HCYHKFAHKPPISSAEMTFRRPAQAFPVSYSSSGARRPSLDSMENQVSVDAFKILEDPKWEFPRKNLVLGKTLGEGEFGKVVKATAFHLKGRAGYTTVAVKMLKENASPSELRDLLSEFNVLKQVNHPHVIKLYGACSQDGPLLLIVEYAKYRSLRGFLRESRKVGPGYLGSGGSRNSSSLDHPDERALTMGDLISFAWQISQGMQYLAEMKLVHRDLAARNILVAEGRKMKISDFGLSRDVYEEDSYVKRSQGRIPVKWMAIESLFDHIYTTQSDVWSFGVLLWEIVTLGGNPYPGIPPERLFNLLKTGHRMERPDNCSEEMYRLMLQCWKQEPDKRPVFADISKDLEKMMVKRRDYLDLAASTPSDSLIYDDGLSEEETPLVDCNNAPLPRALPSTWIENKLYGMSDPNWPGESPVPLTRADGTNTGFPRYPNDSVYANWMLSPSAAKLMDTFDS
Summary of the method: (§1)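 HEK293T lines expressing HiBiT-tagged RET kinase domain, wild-type (293T.144) or G810R (293T.165), treated 6 h in duplicate, 11-point half-log series from 10 μM top. Lytic HiBiT luminescence read; DC50 and Emax (% protein remaining) from dose-response curves.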

[2] = molecular target: T2, RET (658-1114) (Homo sapiens, UniProt P07949); assay: HiBiT-Degradation, RET wild-type degradation assay (Nano-Glo HiBiT Lytic), 293T.144 cells; type: cell-based; details: for DC50 / Emax: 6.0 hours
T2 construct: 658-1114; expressed in transfected cells; host or cells: 293T.144 (293T cells, generated in-house)
T2 sequence (P07949 658-1114): T1 sequence (P07949 658-1114 G810R) with R153G
Summary of the method: as §1

[3] = % remaining protein, read-out: 293T.165 RET(KD: 658-1114 G810R) 6.0 hours (Emax)
[4] = half-maximal degradation concentration, read-out: 293T.165 RET(KD: 658-1114 G810R) 6.0 hours (DC50)
[5] = HiBiT-Degradation, read-out: 293T.165 RET(KD: 658-1114 G810R) 6.0 hours (DC50)
[6] = HiBiT-Degradation, read-out: 293T.144 RET (658-1114) 6.0 hours (DC50)
[7] = HiBiT-Degradation, read-out: 293T.144 RET (658-1114) 6.0 hours (Emax)

Row | SMILES | Emax [1, 3] [%] | DC50 [1, 4] [nM] | 293T.165 RET(KD: 658-1114 G810R) 6.0 hours (Emax) ([1]; HiBiT-Degradation) | 293T.165 RET(KD: 658-1114 G810R) 6.0 hours (IP) [nM] ([1]; HiBiT-Degradation) | DC50 [1, 5] [nM] | 293T.144 RET (658-1114) 6.0 hours (IP) [nM] ([2]; HiBiT-Degradation) | DC50 [2, 6] [nM] | Emax [2, 7] [%] | HiBiT-Degradation 293T.165 RET(KD: 658-1114 G810R) 6.0 hours (IP) [nM] ([1]; RET G810R) | DC50 ([1]; RET G810R, read-out: HiBiT-Degradation 293T.165 RET(KD: 658-1114 G810R) 6.0 hours (DC50)) [nM] | Emax ([1]; RET G810R, read-out: HiBiT-Degradation 293T.165 RET(KD: 658-1114 G810R) 6.0 hours (Emax)) [%] | HiBiT-Degradation 293T.144 RET (658-1114) 6.0 hours (IP) [nM] ([2]; RET wild-type) | DC50 ([2]; RET wild-type, read-out: HiBiT-Degradation 293T.144 RET (658-1114) 6.0 hours (DC50)) [nM] | Emax ([2]; RET wild-type, read-out: HiBiT-Degradation 293T.144 RET (658-1114) 6.0 hours (Emax)) [%] | 293T.165 RET(KD: 658-1114 G810R) 6.0 hours (IP) [nM] [1] | 293T.144 RET (658-1114) 6.0 hours (IP) [nM] [2] | Emax ([2]; % remaining protein, read-out: 293T.144 RET (658-1114) 6.0 hours (Emax)) [%] | DC50 ([2]; half-maximal degradation concentration, read-out: 293T.144 RET (658-1114) 6.0 hours (DC50)) [nM]
1 | N#Cc1cnn2cc(-c3cnn(C4CCN(C(=O)CN5CCC(c6ccc(OC7CCC(=O)NC7=O)cc6F)CC5)CC4)c3)nc(-c3ccc(N4CCN(Cc5cc(F)ccn5)CC4)cc3)c12 (centres unmarked) [Compound 38, 6-(1-(1-(2-(4-(4-((2,6-Dioxopiperidin-3-yl)oxy)-2-fluorophenyl)piperidin-1-yl)acetyl)piperidin-4-yl)-1H-pyrazol-4-yl)-4-(4-(4-((4-fluoropyridin-2-yl)methyl)piperazin-1-yl)phenyl)pyrazolo[1,5-a]pyrazine-3-carbonitrile] | < 50 | < 100 | +++ (<50% = +++) | ++++ (< 50 nM = ++++) | < 100 | ++++ (< 50 nM = ++++) | < 50 | < 30 | – | – | – | – | – | – | – | – | – | –
2 | N#Cc1cnn2cc(-c3ccc(N4CCN(C(=O)CN5CCC(c6ccc(NC7CCC(=O)NC7=O)cc6)CC5)CC4)cc3)cc(-c3ccc(N4C[C@H]5CC[C@@H](C4)O5)nc3)c12 (stereo partly drawn) [Compound 19, 4-(6-((1R,5S)-8—Oxa-3-azabicyclo[3.2.1]octan-3-yl)pyridin-3-yl)-6-(4-(4-(2-(4-(4-((2,6-dioxopiperidin-3-yl)amino)phenyl)piperidin-1-yl)acetyl)piperazin-1-yl)phenyl)pyrazolo[1,5-a]pyridine-3-carbonitrile] | < 50 | < 100 | +++ (<50% = +++) | ++++ (< 50 nM = ++++) | < 100 | ++++ (< 50 nM = ++++) | < 50 | < 30 | – | – | – | – | – | – | – | – | – | –
3 | COC1(C(=O)NC(C)C)CCN(c2ccc(-c3cc(-c4cnn(C5CCN(C(=O)CN6CCC(c7ccc(NC8CCC(=O)NC8=O)cc7F)CC6)CC5)c4)cn4ncc(C#N)c34)cn2)CC1 (centres unmarked) [Compound 6, 1-[5-[3-cyano-6-[1-[1-[2-[4-[4-[(2,6-dioxo-3-piperidyl)amino]-2-fluoro-phenyl]-1-piperidyl]acetyl]-4-piperidyl]pyrazol-4-yl]pyrazolo[1,5-a]pyridin-4-yl]-2-pyridyl]-N-isopropyl-4-methoxy-piperidine-4-carboxamide] | < 50 | < 50 | +++ (<50% = +++) | ++++ (< 50 nM = ++++) | < 50 | ++++ (< 50 nM = ++++) | < 50 | < 30 | – | – | – | – | – | – | – | – | – | –
4 | N#Cc1cnn2cc(-c3cnn(C4CCN(C(=O)CN5CCC(c6ccc(NC7CCC(=O)NC7=O)cc6F)CC5)CC4)c3)cc(-c3ccc(N4CC5CC(C4)N5Cc4ccccn4)nc3)c12 (centres unmarked) [Compound 73, 6-[1-[1-[2-[4-[4-[(2,6-dioxo-3-piperidyl)amino]-2-fluoro-phenyl]-1-piperidyl]acetyl]-4-piperidyl]pyrazol-4-yl]-4-[6-[6-(2-pyridylmethyl)-3,6-diazabicyclo[3.1.1]heptan-3-yl]-3-pyridyl]pyrazolo[1,5-a]pyridine-3-carbonitrile] | < 30 | < 50 | – | – | – | – | – | – | ++++ (< 50 nM = ++++) | < 50 | < 30 | ++++ (< 50 nM = ++++) | < 50 | < 30 | – | – | – | –
5 | CCC1(C(=O)NC2CCC2)CCN(c2ccc(-c3nc(-c4cnn([C@H]5CC[C@H](N6CCC(c7ccc(N[C@H]8CCC(=O)NC8=O)cc7Cl)CC6)CC5)c4)cn4ncc(C#N)c34)cn2)CC1 (single isomer, unassigned) [Compound 130] | < 30 | < 50 | – | – | – | – | – | – | – | – | – | – | – | – | ++++ (<50 nM = ++++) | ++++ (<50 nM = ++++) | < 30 | < 50

From patent US12661410B2, “Compounds for targeted degradation of RET” (C4 Therapeutics, Inc., priority 2020, dated 2026)
